In PubChem BioAssay (NCI):
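Test compounds were applied to cells in 96-well plates for 48 hours at 5 doses. TGI denotes the concentration required for complete inhibition of growth.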

Tests used:
Test in all cases: inhibition of tumour cell growth, NCI panel, 48 h
[1] = test system: 786-0 renal
[2] = test system: A498 renal
[3] = test system: A549 NSCLC
[4] = test system: ACHN renal
[5] = test system: BT-549 breast
[6] = test system: CAKI-1 renal
[7] = test system: CCRF-CEM leukemia
[8] = test system: COLO 205 colon
[9] = test system: DU-145 prostate
[10] = test system: EKVX NSCLC
[11] = test system: HCC-2998 colon
[12] = test system: HCT-116 colon
[13] = test system: HCT-15 colon
[14] = test system: HL-60(TB) leukemia
[15] = test system: HOP-62 NSCLC
[16] = test system: HOP-92 NSCLC
[17] = test system: HS 578T breast
[18] = test system: HT29 colon
[19] = test system: IGROV1 ovarian
[20] = test system: K-562 leukemia
[21] = test system: KM12 colon
[22] = test system: LOX IMVI melanoma
[23] = test system: M14 melanoma
[24] = test system: MALME-3M melanoma
[25] = test system: MCF7 breast
[26] = test system: MDA-MB-231 breast
[27] = test system: MDA-MB-435
[28] = test system: MDA-N
[29] = test system: MOLT-4 leukemia
[30] = test system: NCI-H226 lung
[31] = test system: NCI-H23 lung
[32] = test system: NCI-H460 lung
[33] = test system: NCI-H522 lung
[34] = test system: NCI/ADR-RES ovarian
[35] = test system: OVCAR-3 ovarian
[36] = test system: OVCAR-4 ovarian
[37] = test system: OVCAR-5 ovarian
[38] = test system: OVCAR-8 ovarian
[39] = test system: PC-3 prostate
[40] = test system: RPMI-8226 leukemia
[41] = test system: RXF 393 renal
[42] = test system: SF-268 CNS
[43] = test system: SF-295 CNS
[44] = test system: SF-539 CNS
[45] = test system: SK-MEL-2 melanoma
[46] = test system: SK-MEL-28 melanoma
[47] = test system: SK-MEL-5 melanoma
[48] = test system: SK-OV-3 ovarian
[49] = test system: SN12C renal
[50] = test system: SNB-19 CNS
[51] = test system: SNB-75 CNS
[52] = test system: SR leukemia
[53] = test system: SW-620 colon
[54] = test system: T-47D breast
[55] = test system: TK-10 renal
[56] = test system: U251 CNS
[57] = test system: UACC-257 melanoma
[58] = test system: UACC-62 melanoma
[59] = test system: UO-31 renal

## OC(C1=C/C(=C\c2ccncc2)c2ccccc21)c1ccncc1 (stereo not drawn)
[1]
  TGI: 30.3 µM
[2]
  TGI: 27.3 µM
[3]
  TGI: 41.8 µM
[4]
  TGI: 53.4 µM
[5]
  TGI: 57.9 µM
[6]
  TGI: > 49.5 µM
[7]
  TGI: 45.9 µM
[8]
  TGI: 29.3 µM
[9]
  TGI: 62.2 µM
[10]
  TGI: 41.5 µM
[11]
  TGI: 22.3 µM
[12]
  TGI: 28.2 µM
[13]
  TGI: > 63.5 µM
[14]
  TGI: 15.7 µM
[15]
  TGI: 31.6 µM
[16]
  TGI: 49.7 µM
[17]
  TGI: > 54.1 µM
[18]
  TGI: 32.4 µM
[19]
  TGI: 52.4 µM
[20]
  TGI: 28.1 µM
[21]
  TGI: 35.1 µM
[22]
  TGI: 32 µM
[23]
  TGI: 27.8 µM
[24]
  TGI: 38.3 µM
[25]
  TGI: 30.7 µM
[26]
  TGI: 23.4 µM
[27]
  TGI: 27.9 µM
[28]
  TGI: 30.4 µM
[29]
  TGI: 23.9 µM
[30]
  TGI: 31.1 µM
[31]
  TGI: 39.2 µM
[32]
  TGI: 28.2 µM
[33]
  TGI: 31.1 µM
[34]
  TGI: > 75 µM
[35]
  TGI: 31.7 µM
[36]
  TGI: > 57.6 µM
[37]
  TGI: 37.4 µM
[38]
  TGI: > 100 µM
[39]
  TGI: 32.9 µM
[40]
  TGI: 22.4 µM
[41]
  TGI: 30.6 µM
[42]
  TGI: 57.3 µM
[43]
  TGI: 31.4 µM
[44]
  TGI: 32 µM
[45]
  TGI: 33.8 µM
[46]
  TGI: 34.6 µM
[47]
  TGI: 13 µM
[48]
  TGI: 31.8 µM
[49]
  TGI: 35.4 µM
[50]
  TGI: 69.2 µM
[51]
  TGI: 24 µM
[52]
  TGI: 29.1 µM
[53]
  TGI: > 94.3 µM
[54]
  TGI: 33.7 µM
[55]
  TGI: 32.3 µM
[56]
  TGI: 31.4 µM
[57]
  TGI: 19.1 µM
[58]
  TGI: 24 µM
[59]
  TGI: 28.2 µM

## CCN(CC)c1ccc2c(c1)Oc1ccc(N(C(C)=O)c3ccccc3)cc1C21OC(=O)c2ccccc21 (stereo not drawn)
[1]
  TGI: > 100 µM
[2]
  TGI: > 100 µM
[3]
  TGI: > 100 µM
[4]
  TGI: > 100 µM
[5]
  TGI: > 100 µM
[6]
  TGI: > 100 µM
[7]
  TGI: > 100 µM
[8]
  TGI: > 100 µM
[9]
  TGI: > 100 µM
[10]
  TGI: > 100 µM
[11]
  TGI: > 100 µM
[12]
  TGI: > 100 µM
[13]
  TGI: > 100 µM
[14]
  TGI: 97.6 µM
[15]
  TGI: > 100 µM
[16]
  TGI: > 100 µM
[17]
  TGI: > 100 µM
[18]
  TGI: > 100 µM
[19]
  TGI: > 100 µM
[20]
  TGI: > 100 µM
[21]
  TGI: > 100 µM
[22]
  TGI: > 100 µM
[23]
  TGI: > 100 µM
[24]
  TGI: > 100 µM
[25]
  TGI: > 100 µM
[26]
  TGI: > 100 µM
[27]
  TGI: > 100 µM
[28]
  TGI: > 100 µM
[29]
  TGI: > 100 µM
[30]
  TGI: > 100 µM
[31]
  TGI: > 100 µM
[32]
  TGI: > 100 µM
[33]
  TGI: > 100 µM
[34]
  TGI: > 100 µM
[35]
  TGI: > 100 µM
[36]
  TGI: > 100 µM
[37]
  TGI: > 100 µM
[38]
  TGI: > 100 µM
[39]
  TGI: > 100 µM
[40]
  TGI: > 100 µM
[41]
  TGI: > 100 µM
[42]
  TGI: > 100 µM
[43]
  TGI: > 100 µM
[44]
  TGI: > 100 µM
[45]
  TGI: > 100 µM
[46]
  TGI: > 100 µM
[47]
  TGI: > 100 µM
[48]
  TGI: > 100 µM
[49]
  TGI: > 100 µM
[50]
  TGI: > 100 µM
[51]
  TGI: > 100 µM
[52]
  TGI: > 100 µM
[53]
  TGI: > 100 µM
[54]
  TGI: > 100 µM
[55]
  TGI: > 100 µM
[56]
  TGI: > 100 µM
[57]
  TGI: > 100 µM
[58]
  TGI: > 100 µM
[59]
  TGI: > 100 µM
